Data: patent US20260130925A1, “METHODS FOR TREATING CANCER” (Genesis Molecular AI, Inc., priority 2022, published 2026)

What was measured:
PI3K H1047R = PI3K H1047R (Homo sapiens, UniProt P42336, H1047R); experiment: PI3K H1047R ADP-Glo (PI/PS); type: biochemical; parameters: PI3K H1047R ADP-Glo (PI/PS) IC50: H1047R Selectivity: reference not given here; conditions: for IC50: PI/PS substrate
[1] = molecular target: T1, PI3Kα H1047R in T47D cells (Homo sapiens, UniProt P42336, H1047R); experiment: PI3Kα cellular assay: T47D pAKT S473 HTRF; type: cell-based; conditions: for T47D pAKT S473 HTRF IC50 (H1047R): T47D (H1047R) selectivity over SKBR3 (WT): T47D (H1047R) versus SKBR3 (WT) cells; for IC50: T47D cells (H1047R), serum starved, 1 hr compound, 20 ng/ml EGF 10 min
T1 construct: endogenous in cells; host or cells: T47D
Procedure: PI3Kα cellular assay experimental procedure: SKBR3 or T47D cells are seeded in DMEM containing 10% FBS at 25 k cells/well into 96-well cell culture format. Cells are incubated overnight at 37° C. in a 5% CO2 incubator and the following day cell media is aspirated, adherent cells are washed 1× with room temperature PBS prior to serum-free media application. Cells are returned to 37° C. 5% CO2 incubator and incubated a further 16 hrs. Compounds are added to serum starved adherent cells with a top dose of 10,000 nM and 3× multiple dose reductions for a minimum dose of 0.5 nM diluted in DMSO. Cell/compound incubation continues for 1 hr in a 37° C., 5% CO2 incubator prior to 10 minute PIK3CA stimulation with 20 ng/ml EGF. Cells treated with 0.1% DMSO and 20 ng/mL EGF are employed as negative control, cells treated with 10 uM Alpelisib and 20 ng/mL EGF are employed as a positive control. After 10 mins, plates are removed from incubator and cells are lysed with buffer and shaking 45 minutes. 20 μL of lysate is transferred to an opti-384 plate and 2.5 μl of Phospho-AKT d2 antibody with 2.5 μl of Phospho-AKT Eu Cryptate solution in the detection buffer are added to each well. 384 well plate is left overnight at room temperature before reading HTRF on an Envision plate reader.

T1 sequence (P42336 whole entry H1047R): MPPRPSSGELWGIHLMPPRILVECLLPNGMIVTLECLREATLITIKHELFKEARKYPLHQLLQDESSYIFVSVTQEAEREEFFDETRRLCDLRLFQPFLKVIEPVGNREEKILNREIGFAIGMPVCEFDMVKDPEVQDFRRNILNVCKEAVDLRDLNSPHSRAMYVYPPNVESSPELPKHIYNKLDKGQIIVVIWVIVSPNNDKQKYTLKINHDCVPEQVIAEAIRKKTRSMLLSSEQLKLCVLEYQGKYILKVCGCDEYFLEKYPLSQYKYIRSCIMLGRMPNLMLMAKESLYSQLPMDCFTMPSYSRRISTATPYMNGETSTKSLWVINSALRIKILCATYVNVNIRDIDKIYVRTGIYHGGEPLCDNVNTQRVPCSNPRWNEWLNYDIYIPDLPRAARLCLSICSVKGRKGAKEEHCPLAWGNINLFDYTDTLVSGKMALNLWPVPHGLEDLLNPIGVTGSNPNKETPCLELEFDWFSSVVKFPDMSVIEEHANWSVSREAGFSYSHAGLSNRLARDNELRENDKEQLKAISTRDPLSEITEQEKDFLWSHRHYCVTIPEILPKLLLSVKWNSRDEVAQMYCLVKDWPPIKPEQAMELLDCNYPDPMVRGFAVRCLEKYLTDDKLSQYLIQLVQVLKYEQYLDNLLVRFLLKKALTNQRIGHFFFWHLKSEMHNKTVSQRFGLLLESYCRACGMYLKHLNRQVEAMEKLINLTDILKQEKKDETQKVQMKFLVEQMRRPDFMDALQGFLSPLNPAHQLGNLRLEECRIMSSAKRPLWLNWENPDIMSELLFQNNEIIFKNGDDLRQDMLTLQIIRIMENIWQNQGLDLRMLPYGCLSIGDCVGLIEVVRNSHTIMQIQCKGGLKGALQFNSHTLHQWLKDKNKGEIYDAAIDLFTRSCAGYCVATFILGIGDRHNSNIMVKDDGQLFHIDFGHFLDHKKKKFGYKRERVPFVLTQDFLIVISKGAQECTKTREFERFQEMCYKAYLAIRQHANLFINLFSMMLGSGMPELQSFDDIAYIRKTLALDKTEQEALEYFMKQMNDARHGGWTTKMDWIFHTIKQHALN
T1 sequence (P27986 whole entry partner): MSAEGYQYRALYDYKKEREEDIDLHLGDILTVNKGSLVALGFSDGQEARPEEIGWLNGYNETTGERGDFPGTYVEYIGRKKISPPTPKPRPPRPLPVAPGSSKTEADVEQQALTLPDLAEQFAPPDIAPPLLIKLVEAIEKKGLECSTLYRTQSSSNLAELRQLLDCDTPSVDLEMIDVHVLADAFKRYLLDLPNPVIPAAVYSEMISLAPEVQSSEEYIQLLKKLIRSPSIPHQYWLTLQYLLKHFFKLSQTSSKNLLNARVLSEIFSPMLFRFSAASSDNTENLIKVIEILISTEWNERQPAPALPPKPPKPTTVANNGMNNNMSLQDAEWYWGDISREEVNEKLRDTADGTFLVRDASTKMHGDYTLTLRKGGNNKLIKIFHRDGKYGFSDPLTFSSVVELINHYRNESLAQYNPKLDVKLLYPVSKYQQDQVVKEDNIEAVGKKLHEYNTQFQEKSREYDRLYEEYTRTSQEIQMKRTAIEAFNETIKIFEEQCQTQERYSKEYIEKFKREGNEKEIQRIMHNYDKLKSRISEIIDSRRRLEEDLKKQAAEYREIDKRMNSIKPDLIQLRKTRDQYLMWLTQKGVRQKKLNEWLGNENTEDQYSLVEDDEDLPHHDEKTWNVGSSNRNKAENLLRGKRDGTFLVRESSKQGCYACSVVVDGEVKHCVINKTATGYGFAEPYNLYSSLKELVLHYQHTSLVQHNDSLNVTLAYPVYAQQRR
PI3K H1047R, sequence (P42336 whole entry H1047R): as the sequence (P42336 whole entry H1047R) above
PI3K H1047R, sequence (P27986 whole entry partner): as the sequence (P27986 whole entry partner) above

Cc1cc(C(C)Nc2ccccc2C(=O)O)c2cc(OC3CCOCC3)ncc2c1 (stereo not shown) [Compound 74]
PI3K H1047R ADP-Glo (PI/PS) IC50: H1047R Selectivity (PI3K H1047R): A (A denotes >20-fold)
IC50 (PI3K H1047R): < 1 µM
T47D pAKT S473 HTRF IC50 (H1047R): T47D (H1047R) selectivity over SKBR3 (WT) [1]: A (A denotes >20-fold)
IC50 [1]: < 0.75 µM

Cc1cc([C@H](C)Nc2ccccc2C(=O)O)c2cc(-c3ccc(F)cc3)n(C)c(=O)c2c1 [Compound 75]
IC50 (PI3K H1047R): ≥ 10 µM
T47D pAKT S473 HTRF IC50 (H1047R): T47D (H1047R) selectivity over SKBR3 (WT) [1]: B (B denotes 20-fold≥value>5-fold)
IC50 [1]: 0.75 to 2 µM

Cc1cc([C@@H](C)Nc2ccccc2C(=O)O)c2cc(-c3ccc(F)cc3)n(C)c(=O)c2c1 [Compound 76]
PI3K H1047R ADP-Glo (PI/PS) IC50: H1047R Selectivity (PI3K H1047R): A (A denotes >20-fold)
IC50 (PI3K H1047R): < 1 µM
T47D pAKT S473 HTRF IC50 (H1047R): T47D (H1047R) selectivity over SKBR3 (WT) [1]: A (A denotes >20-fold)
IC50 [1]: < 0.75 µM

Cc1cc(C(C)Nc2ccccc2C(=O)O)c2cc(-c3ccc(F)cc3)n(C)c(=O)c2c1 (stereo not shown) [Compound 77]
PI3K H1047R ADP-Glo (PI/PS) IC50: H1047R Selectivity (PI3K H1047R): A (A denotes >20-fold)
IC50 (PI3K H1047R): < 1 µM
T47D pAKT S473 HTRF IC50 (H1047R): T47D (H1047R) selectivity over SKBR3 (WT) [1]: A (A denotes >20-fold)
IC50 [1]: < 0.75 µM

Cc1cc([C@H](C)Nc2ccccc2C(=O)O)c2cc(-c3ccnc(C4CC4)c3)n(C)c(=O)c2c1 [Compound 78]
PI3K H1047R ADP-Glo (PI/PS) IC50: H1047R Selectivity (PI3K H1047R): A (A denotes >20-fold)
IC50 (PI3K H1047R): < 1 µM
T47D pAKT S473 HTRF IC50 (H1047R): T47D (H1047R) selectivity over SKBR3 (WT) [1]: A (A denotes >20-fold)
IC50 [1]: < 0.75 µM

Cc1cc([C@@H](C)Nc2ccccc2C(=O)O)c2cc(-c3ccnc(C4CC4)c3)n(C)c(=O)c2c1 [Compound 79]
IC50 (PI3K H1047R): ≥ 10 µM
T47D pAKT S473 HTRF IC50 (H1047R): T47D (H1047R) selectivity over SKBR3 (WT) [1]: C (C denotes ≤5-fold)
IC50 [1]: ≥ 2 µM

Cc1cc([C@H](C)Nc2ccccc2C(=O)O)c2cc(N3Cc4ccccc4C3)ncc2c1 [Compound 80]
IC50 (PI3K H1047R): ≥ 10 µM
T47D pAKT S473 HTRF IC50 (H1047R): T47D (H1047R) selectivity over SKBR3 (WT) [1]: C (C denotes ≤5-fold)
IC50 [1]: ≥ 2 µM

Cc1cc([C@@H](C)Nc2ccccc2C(=O)O)c2cc(N3Cc4ccccc4C3)ncc2c1 [Compound 81]
PI3K H1047R ADP-Glo (PI/PS) IC50: H1047R Selectivity (PI3K H1047R): A (A denotes >20-fold)
IC50 (PI3K H1047R): < 1 µM
T47D pAKT S473 HTRF IC50 (H1047R): T47D (H1047R) selectivity over SKBR3 (WT) [1]: A (A denotes >20-fold)
IC50 [1]: < 0.75 µM

Cc1cc(C(C)Nc2ccccc2C(=O)O)c2cc(-c3ccnc(C4CC4)c3)n(C)c(=O)c2c1 (stereo not shown) [Compound 82]
PI3K H1047R ADP-Glo (PI/PS) IC50: H1047R Selectivity (PI3K H1047R): A (A denotes >20-fold)
IC50 (PI3K H1047R): < 1 µM
T47D pAKT S473 HTRF IC50 (H1047R): T47D (H1047R) selectivity over SKBR3 (WT) [1]: A (A denotes >20-fold)
IC50 [1]: < 0.75 µM

Cc1cc([C@H](C)Nc2ccccc2C(=O)O)c2cc(-c3ccc4c(c3)c(C)nn4C)ncc2c1 [Compound 83]
PI3K H1047R ADP-Glo (PI/PS) IC50: H1047R Selectivity (PI3K H1047R): C (C denotes ≤5-fold)
IC50 (PI3K H1047R): ≥ 10 µM
T47D pAKT S473 HTRF IC50 (H1047R): T47D (H1047R) selectivity over SKBR3 (WT) [1]: C (C denotes ≤5-fold)
IC50 [1]: ≥ 2 µM

Cc1cc([C@@H](C)Nc2ccccc2C(=O)O)c2cc(-c3ccc4c(c3)c(C)nn4C)ncc2c1 [Compound 84]
PI3K H1047R ADP-Glo (PI/PS) IC50: H1047R Selectivity (PI3K H1047R): A (A denotes >20-fold)
IC50 (PI3K H1047R): < 1 µM
T47D pAKT S473 HTRF IC50 (H1047R): T47D (H1047R) selectivity over SKBR3 (WT) [1]: A (A denotes >20-fold)
IC50 [1]: < 0.75 µM

Cc1cc([C@H](C)Nc2ccccc2C(=O)O)c2cc(-c3ccc4c(c3)c(C)nn4C)n(C)c(=O)c2c1 [Compound 85]
PI3K H1047R ADP-Glo (PI/PS) IC50: H1047R Selectivity (PI3K H1047R): C (C denotes ≤5-fold)
IC50 (PI3K H1047R): 1 to 10 µM
T47D pAKT S473 HTRF IC50 (H1047R): T47D (H1047R) selectivity over SKBR3 (WT) [1]: B (B denotes 20-fold≥value>5-fold)
IC50 [1]: ≥ 2 µM

Cc1cc(C(C)Nc2ccccc2C(=O)O)c2cc(-c3ccc4c(c3)c(C)nn4C)ncc2c1 (stereo not shown) [Compound 88]
PI3K H1047R ADP-Glo (PI/PS) IC50: H1047R Selectivity (PI3K H1047R): A (A denotes >20-fold)
IC50 (PI3K H1047R): < 1 µM
T47D pAKT S473 HTRF IC50 (H1047R): T47D (H1047R) selectivity over SKBR3 (WT) [1]: A (A denotes >20-fold)
IC50 [1]: < 0.75 µM
